# According to publication PMC4220016, “The binding characteristics and orientation of a novel radioligand with distinct properties at 5-HT3A and 5-HT3AB receptors” (Neuropharmacology, 2014):
# Several values for one entry are separate records, joined by “and”; a condition that tells them apart may be missing. Equal values may be shown once. Read-outs that look alike come from different tables or passages of the source.
# How the values were obtained:
# 5-HT3A receptor I139C = target: T1, 5-HT3A receptor I139C (Homo sapiens, UniProt P46098, I134C); assay: Saturation binding of [^3H]VUF10166 at 5-HT3A receptor mutant; conditions: I139C Kd versus wild type
# T1 construct: expressed in transfected cells; host or cells: HEK 293
# T1 sequence (P46098 24-478 I134C): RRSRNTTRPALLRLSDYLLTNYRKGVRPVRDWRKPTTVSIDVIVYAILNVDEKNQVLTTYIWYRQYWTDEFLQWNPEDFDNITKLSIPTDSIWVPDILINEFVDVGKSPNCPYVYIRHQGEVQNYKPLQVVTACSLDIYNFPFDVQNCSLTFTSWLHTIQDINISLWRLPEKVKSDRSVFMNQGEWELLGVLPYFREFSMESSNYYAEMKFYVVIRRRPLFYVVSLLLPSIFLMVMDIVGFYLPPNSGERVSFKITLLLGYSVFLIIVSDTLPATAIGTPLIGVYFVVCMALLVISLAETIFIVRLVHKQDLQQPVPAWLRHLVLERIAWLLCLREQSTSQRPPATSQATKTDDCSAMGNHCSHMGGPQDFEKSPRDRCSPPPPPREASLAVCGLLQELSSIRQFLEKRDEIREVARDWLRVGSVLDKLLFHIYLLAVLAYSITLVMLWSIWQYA
# Description: (§1) Mutagenesis was performed using the QuikChange method (Agilent Technologies Inc., California, USA) on human 5-HT3A cDNA (accession number: P46098) cloned into pcDNA3.1 (Invitrogen, Paisley, UK). Cysteine residues were substituted for amino acids throughout each of the binding loops A–E (Fig. 1). To facilitate comparisons with previous work, we use the numbering of the equivalent residues in the mouse 5-HT3A subunit; for human numbering 5 should be subtracted from each residue number.
# (§2) All data were analysed using GraphPad Prism 4.03.
# 5-HT3A receptor K112C = target: T2, 5-HT3A receptor K112C (Homo sapiens, UniProt P46098, K107C); assay: as above; conditions: K112C Kd versus wild type
# T2 construct: expressed in transfected cells; host or cells: HEK 293
# T2 sequence (P46098 24-478 K107C): as the sequence (P46098 24-478 I134C) above, with K84C, C111I counted along it
# Description: as §1, §2
# 5-HT3A receptor S114C = target: T3, 5-HT3A receptor S114C (Homo sapiens, UniProt P46098, S109C); assay: as above; conditions: S114C Kd versus wild type
# T3 construct: expressed in transfected cells; host or cells: HEK 293
# T3 sequence (P46098 24-478 S109C): as the sequence (P46098 24-478 I134C) above, with S86C, C111I counted along it
# Description: as §1, §2
# 5-HT3A receptor I71C = target: T4, 5-HT3A receptor I71C (Homo sapiens, UniProt P46098, I66C); assay: as above; conditions: I71C Kd versus wild type
# T4 construct: expressed in transfected cells; host or cells: HEK 293
# T4 sequence (P46098 24-478 I66C): as the sequence (P46098 24-478 I134C) above, with I43C, C111I counted along it
# Description: as §1, §2
# 5-HT3A receptor Q151C = target: T5, 5-HT3A receptor Q151C (Homo sapiens, UniProt P46098, Q146C); assay: as above; conditions: Q151C Kd versus wild type
# T5 construct: expressed in transfected cells; host or cells: HEK 293
# T5 sequence (P46098 24-478 Q146C): as the sequence (P46098 24-478 I134C) above, with C111I, Q123C counted along it
# Description: as §1, §2
# 5-HT3A receptor R92C = target: T6, 5-HT3A receptor R92C (Homo sapiens, UniProt P46098, R87C); assay: as above; conditions: R92C Kd versus wild type
# T6 construct: expressed in transfected cells; host or cells: HEK 293
# T6 sequence (P46098 24-478 R87C): as the sequence (P46098 24-478 I134C) above, with R64C, C111I counted along it
# Description: as §1, §2
# 5-HT3A receptor R145C = target: T7, 5-HT3A receptor R145C (Homo sapiens, UniProt P46098, R140C); assay: as above; conditions: R145C Kd versus wild type
# T7 construct: expressed in transfected cells; host or cells: HEK 293
# T7 sequence (P46098 24-478 R140C): as the sequence (P46098 24-478 I134C) above, with C111I, R117C counted along it
# Description: as §1, §2
# 5-HT3A receptor N128C = target: T8, 5-HT3A receptor N128C (Homo sapiens, UniProt P46098, N123C); assay: as above; conditions: N128C Kd versus wild type
# T8 construct: expressed in transfected cells; host or cells: HEK 293
# T8 sequence (P46098 24-478 N123C): as the sequence (P46098 24-478 I134C) above, with N100C, C111I counted along it
# Description: as §1, §2
# 5-HT3A receptor H185C = target: T9, 5-HT3A receptor H185C (Homo sapiens, UniProt P46098, H180C); assay: as above; conditions: H185C Kd versus wild type
# T9 construct: expressed in transfected cells; host or cells: HEK 293
# T9 sequence (P46098 24-478 H180C): as the sequence (P46098 24-478 I134C) above, with C111I, H157C counted along it
# Description: as §1, §2
# 5-HT3A receptor N232C = target: T10, 5-HT3A receptor N232C (Homo sapiens, UniProt P46098, N227C); assay: as above; conditions: N232C Kd versus wild type
# T10 construct: expressed in transfected cells; host or cells: HEK 293
# T10 sequence (P46098 24-478 N227C): as the sequence (P46098 24-478 I134C) above, with C111I, N204C counted along it
# Description: as §1, §2
# 5-HT3AB receptors [1] = target: T11, 5-HT3AB receptors (Homo sapiens, UniProt O95264+P46098); assay: Kinetic measurements (association, dissociation) at 5-HT3AB receptors; format: binding; design: expressed in transfected cells; host or cells: HEK 293; conditions: for koff: from kobs plot; for Kd: from kinetic rates, Equ (4), read-out: Kd(nM) (kon/koff)
# T11 sequence (P46098 24-478): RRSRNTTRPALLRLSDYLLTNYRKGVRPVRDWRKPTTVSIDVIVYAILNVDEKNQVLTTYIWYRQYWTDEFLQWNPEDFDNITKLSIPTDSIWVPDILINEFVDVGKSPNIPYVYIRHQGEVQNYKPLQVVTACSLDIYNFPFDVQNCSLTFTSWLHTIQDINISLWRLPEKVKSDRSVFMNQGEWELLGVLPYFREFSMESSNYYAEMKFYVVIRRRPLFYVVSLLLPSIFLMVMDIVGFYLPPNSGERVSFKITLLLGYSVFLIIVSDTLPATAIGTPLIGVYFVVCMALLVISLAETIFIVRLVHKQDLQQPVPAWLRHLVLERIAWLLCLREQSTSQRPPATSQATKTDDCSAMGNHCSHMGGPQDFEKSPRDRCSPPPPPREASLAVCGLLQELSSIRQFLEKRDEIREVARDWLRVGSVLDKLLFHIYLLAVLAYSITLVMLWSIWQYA
# T11 sequence (O95264 22-441): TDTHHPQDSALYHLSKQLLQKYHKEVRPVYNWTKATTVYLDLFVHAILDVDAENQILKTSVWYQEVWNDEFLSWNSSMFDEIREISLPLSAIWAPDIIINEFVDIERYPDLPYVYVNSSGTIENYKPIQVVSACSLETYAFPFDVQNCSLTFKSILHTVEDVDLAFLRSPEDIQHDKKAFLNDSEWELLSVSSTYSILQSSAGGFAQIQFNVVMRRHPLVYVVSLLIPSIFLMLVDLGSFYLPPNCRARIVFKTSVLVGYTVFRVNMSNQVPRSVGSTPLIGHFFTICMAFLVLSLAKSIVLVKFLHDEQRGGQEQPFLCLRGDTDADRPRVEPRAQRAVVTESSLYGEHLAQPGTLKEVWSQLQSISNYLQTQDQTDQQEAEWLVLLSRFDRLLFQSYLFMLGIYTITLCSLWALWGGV
# 5-HT3A receptors [2] = target: T12, 5-HT3A receptors (Homo sapiens, UniProt P46098); assay: Kinetic measurements (association, dissociation) at 5-HT3A receptors; format: binding; design: expressed in transfected cells; host or cells: HEK 293; conditions: for koff: intercept of plot of kobs versus radioligand concentration; for kon: slope of plot of kobs versus radioligand concentration
# T12 sequence (P46098 24-478): T11 sequence (P46098 24-478)
# 5-HT3A receptor Y153C = target: T13, 5-HT3A receptor Y153C (Homo sapiens, UniProt P46098, Y148C); assay: Saturation binding of [^3H]VUF10166 at 5-HT3A receptor mutant; conditions: Y153C Kd versus wild type
# T13 construct: expressed in transfected cells; host or cells: HEK 293
# T13 sequence (P46098 24-478 Y148C): as the sequence (P46098 24-478 I134C) above, with C111I, Y125C counted along it
# Description: as §1
# (§3) All data were analysed using GraphPad Prism 4.03. […].
# 5-HT3A receptor L126C = target: T14, 5-HT3A receptor L126C (Homo sapiens, UniProt P46098, L121C); assay: as above; conditions: L126C Kd versus wild type
# T14 construct: expressed in transfected cells; host or cells: HEK 293
# T14 sequence (P46098 24-478 L121C): as the sequence (P46098 24-478 I134C) above, with L98C, C111I counted along it
# Description: as §1, §3
# 5-HT3A receptor F226C = target: T15, 5-HT3A receptor F226C (Homo sapiens, UniProt P46098, F221C); assay: as above; conditions: F226C Kd versus wild type
# T15 construct: expressed in transfected cells; host or cells: HEK 293
# T15 sequence (P46098 24-478 F221C): as the sequence (P46098 24-478 I134C) above, with C111I, F198C counted along it
# Description: as §1, §3
# 5-HT3AB receptors [3] = test system: 5-HT3AB receptors; design: method as in Nakamura et al., 2013; conditions: ref Nakamura et al., 2013; cited from earlier work
# 5-HT3A receptors [4] = test system: 5-HT3A receptors; design: method as in Nakamura et al., 2013; conditions: ref Nakamura et al., 2013; cited from earlier work
# 5-HT3AB receptors [5] = target: T11, 5-HT3AB receptors; assay: Competition binding with [^3H]VUF10166 at 5-HT3AB receptors
# 5-HT3A receptors [6] = target: T12, 5-HT3A receptors; conditions: competition with 0.7 nM [^3H]BRL43694
# 5-HT3A receptors [7] = target: T12, 5-HT3A receptors; assay: Competition binding with [^3H]VUF10166 at 5-HT3A receptors
# 5-HT3AB receptors [8] = target: T11, 5-HT3AB receptors; conditions: competition with 0.7 nM [^3H]BRL43694
# α7 nACh receptors [9] = target: T16, α7 nACh receptors (Homo sapiens, UniProt P36544); conditions: unlabelled VUF10166, ref Thompson et al., 2012; cited from earlier work
# T16 sequence (P36544 23-502): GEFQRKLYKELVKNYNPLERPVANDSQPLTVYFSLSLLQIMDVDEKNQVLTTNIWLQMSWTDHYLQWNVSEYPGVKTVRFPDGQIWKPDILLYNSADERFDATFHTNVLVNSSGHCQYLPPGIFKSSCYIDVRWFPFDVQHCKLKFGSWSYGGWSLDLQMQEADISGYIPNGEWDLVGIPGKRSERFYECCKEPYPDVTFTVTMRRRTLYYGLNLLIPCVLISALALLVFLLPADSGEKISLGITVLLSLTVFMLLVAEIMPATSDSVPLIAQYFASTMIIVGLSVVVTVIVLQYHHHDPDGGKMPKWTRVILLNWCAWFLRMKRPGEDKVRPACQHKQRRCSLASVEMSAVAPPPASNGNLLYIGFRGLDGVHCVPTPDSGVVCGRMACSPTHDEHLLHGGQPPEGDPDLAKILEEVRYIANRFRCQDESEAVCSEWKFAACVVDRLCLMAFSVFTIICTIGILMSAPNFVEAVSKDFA
# 5-HT3 receptors = test system: 5-HT3 receptors; design: method as in Thompson et al., 2012; conditions: at μM concentrations; ref Thompson et al., 2012; cited from earlier work
# 5-HT3AB receptors [10] = target: T11, 5-HT3AB receptors; assay: biochemical; conditions: Ki (nM) competition
# 5-HT3A receptors [11] = target: T12, 5-HT3A receptors; assay: biochemical; format: binding; design: expressed in transfected cells; host or cells: HEK 293; conditions: 5-HT3A
# 5-HT3A receptors [12] = target: T12, 5-HT3A receptors; assay: biochemical
# 5-HT3A receptors [13] = target: 5-HT3A receptors; design: method as in Thompson et al., 2012; conditions: ref Thompson et al., 2012, cited from earlier work
# α7 nACh receptors [14] = target: T16, α7 nACh receptors; assay: Saturation binding of [^3H]VUF10166 on α7 nACh receptors; conditions: data not shown
# [15] = second component, [^3H]VUF10166 > 3 nM
structure (smiles),measurement,setting,value
[3H]CN1CCN(c2nc3ccccc3nc2Cl)CC1 [[^3H]VUF10166] [2-chloro-3-(4-[^3H]methylpiperazin-1-yl)quinoxaline],Fold change,5-HT3A receptor I139C,7.4
same,Fold change,5-HT3A receptor K112C,1.6
same,Fold change,5-HT3A receptor S114C,1.0
same,Fold change,5-HT3A receptor I71C,1.1
same,Fold change,5-HT3A receptor Q151C,8.7
same,Fold change,5-HT3A receptor R92C,4.2
same,Fold change,5-HT3A receptor R145C,4.6
same,Fold change,5-HT3A receptor N128C,3.3
same,Fold change,5-HT3A receptor H185C,4.5
same,Fold change,5-HT3A receptor N232C,9.0
same,average kon determined from kobs (Equ (5)),5-HT3AB receptors [1]; below 3 nM [^3H]VUF10166,8.77e+07 M/min
same,"koff from dissociation, double exponential, fast component",5-HT3AB receptors [1]; dissociation in 2 mM quipazine,0.00378 ± 0.000933 s⁻¹
same,"koff from dissociation, double exponential, slow component",5-HT3AB receptors [1]; dissociation in 2 mM quipazine,0.000167 ± 5e-05 s⁻¹
same,koff,"5-HT3AB receptors [1]; first component, [^3H]VUF10166 < 3 nM",0.0004 s⁻¹
same,koff,5-HT3AB receptors [1]; [15],0.0027 s⁻¹
same,kon determined directly from kobs values using Equ (5),5-HT3A receptors [2],8.24e+07 M/min
same,"koff from dissociation, single exponential",5-HT3A receptors [2]; dissociation in 2 mM quipazine,0.000183 ± 1.7e-05 s⁻¹
same,koff,5-HT3A receptors [2],0.00017 s⁻¹
same,kon,5-HT3A receptors [2],1.04e+06 M⁻¹ s⁻¹
same,Fold change,5-HT3A receptor Y153C,9.7
same,Fold change,5-HT3A receptor L126C,4.2
same,Fold change,5-HT3A receptor F226C,7.6
CC[C@@]1(O)C(=O)OCc2c1cc1n(c2=O)Cc2cc3c(CN(C)C)c(O)ccc3nc2-1 [topotecan],effect on 5-HT3AB receptors (in words),5-HT3AB receptors [3],potentiate
same,effect on 5-HT3A receptors (in words),5-HT3A receptors [4],inhibit
"NC(N)=NC(N)=Nc1cccc(Cl)c1 [mCPBG, meta-chlorophenylbiguanide]",inhibition of specific [^3H]VUF10166 binding (in words),5-HT3AB receptors [5]; 5-HT3AB,inhibited
same,pIC50 5-HT3AB,5-HT3AB receptors [5]; competition with 0.6 nM [^3H]VUF10166,6.07 ± 0.20 (5)
same,pIC50 5-HT3A,5-HT3A receptors [6],6.88 ± 0.13 (7)
same,inhibition of specific [^3H]VUF10166 binding (in words),5-HT3A receptors [7]; 5-HT3A,inhibited
same,pIC50 5-HT3A,5-HT3A receptors [7]; competition with 0.2 nM [^3H]VUF10166,7.49 ± 0.06 (4)
same,pIC50 5-HT3AB,5-HT3AB receptors [8],6.64 ± 0.12 (5)
"CN1CCN(c2nc3ccccc3nc2Cl)CC1 [VUF10166, 2-chloro-3-(4-methylpiperazin-1-yl)quinoxaline]",competition with [^3H]epibatidine (in words),α7 nACh receptors [9],does not compete
same,kon,"5-HT3AB receptors [1]; first component of two site fit, [^3H]VUF10166 < 3 nM",1.02e+06 M⁻¹ s⁻¹
same,koff,"5-HT3AB receptors [1]; first component, [^3H]VUF10166 < 3 nM, read-out: koff (converted)",0.0004 s⁻¹
same,Kd,5-HT3AB receptors [1]; first component,0.38 nM
same,Kd,5-HT3AB receptors [1]; second component (>3 nM),22.4 nM
same,kon,"5-HT3AB receptors [1]; second component of two site fit, [^3H]VUF10166 > 3 nM",120000 M⁻¹ s⁻¹
same,koff,5-HT3AB receptors [1]; [15],0.0027 s⁻¹
same,koff,"5-HT3AB receptors [1]; second component, [^3H]VUF10166 > 3 nM, read-out: koff (converted)",0.00267 s⁻¹
same,agonist activity (in words),5-HT3 receptors,low efficacy partial agonist
same,Kd,"5-HT3A receptors [2]; calculated from kinetic rates, Equ (4), read-out: Kd(nM) (kon/koff)",0.16 nM
same,koff,5-HT3A receptors [2]; read-out: koff (converted),0.000167 s⁻¹
same,kon,5-HT3A receptors [2]; read-out: kon (converted),1.04e+06 M⁻¹ s⁻¹
same,Fold change,5-HT3A receptor Y153C,10
same,Fold change,5-HT3A receptor L126C,~4
same,Fold change,5-HT3A receptor F226C,7
same,Ki,5-HT3AB receptors [10],37 nM and 36.7 nM
same,Kd,"5-HT3A receptors [11]; tritiated ligand, transfected HEK 293 cells, 0 °C, read-out: Kd (nM) saturation",0.18 ± 0.04 nM
same,Ki,5-HT3A receptors [12],0.24 ± 0.11 nM
same,pKi,5-HT3A receptors [13]; 5-HT3A receptors,~10
same,affinity at 5-HT3A relative to 5-HT3AB receptors,5-HT3A receptors [13],~100 fold
"[3H]CN1CCN(c2nc3ccccc3nc2Cl)CC1 [[^3H]VUF10166, 2-chloro-3-(4-[^3H]methylpiperazin-1-yl)quinoxaline]",specific saturable binding (in words),α7 nACh receptors [14],no specific saturable binding
same,non-specific binding,5-HT3A receptors [11]; non-specific binding determined with 2 mM quipazine,< 5%
same,Bmax,5-HT3A receptors [11]; paired samples,2229 ± 158 fmol/mg
